The source of these data is the supplement of paper PMC10883282.

± gives the standard deviation of the averaged measurements.

This assay deals with HS729. Briefly: relative viability vs DMSO control (72 h) (fraction); higher = more viable cells. An outline of the steps:
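Sarcoma cell lines were plated in 384 wells to reach 80–90% confluence, treated after 24 h with 2.5 µl of serially diluted compound and held 72 h at 37 °C, 5% CO2. Relative viability was taken as percent growth from ATPLite readings, averaged over up to triplicate wells. The values were rescaled so that 1 marks full and 0 marks none.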

With `C[C@]1(O)C[C@@H](c2nc(-c3ccc4ccc(-c5ccccc5)nc4c3)c3c(N)nccn32)C1` [Linsitinib], the relative viability by setting is: (0.00017 µM) 1.04 ± 0.051; (0.00051 µM) 1.02 ± 0.073; (0.00152 µM) 0.996 ± 0.053; (0.00457 µM) 0.969 ± 0.026; (0.01372 µM) 0.921 ± 0.033; (0.04115 µM) 0.842 ± 0.012. In addition, the relative viability is 0.757 ± 0.047 (0.1235 µM); 0.655 ± 0.07 (0.3704 µM); 0.588 ± 0.047 (1.111 µM); 0.577 ± 0.055 (3.333 µM); 0.465 ± 0.049 (10 µM).
In turn, `C=CC(=O)N1CCC([C@@H]2CCNc3c(C(N)=O)c(-c4ccc(Oc5ccccc5)cc4)nn32)CC1` [Zanubrutinib] displayed a relative viability (0.00017 µM) of 1.06 ± 0.046; a relative viability (0.00051 µM) of 1.07 ± 0.06; a relative viability (0.00152 µM) of 1.05 ± 0.061; a relative viability (0.00457 µM) of 1.05 ± 0.072; a relative viability (0.01372 µM) of 1.06 ± 0.082; a relative viability (0.04115 µM) of 1.04 ± 0.099. Besides, the relative viability runs as follows: (0.1235 µM) 1.06 ± 0.062; (0.3704 µM) 1.03 ± 0.095; (1.111 µM) 0.961 ± 0.094; (3.333 µM) 1.02 ± 0.074; (10 µM) 0.873 ± 0.077.
Consider `Cn1cc(-c2cc3c(N4CCN(c5ncc([C@@](C)(N)c6ccc(F)cc6)cn5)CC4)ncnn3c2)cn1` [Avapritinib], for which the relative viability by setting is: (0.00017 µM) 0.909 ± 0.046; (0.00051 µM) 0.949 ± 0.023; (0.00152 µM) 0.9313 ± 0.0083; (0.00457 µM) 0.916 ± 0.037; (0.01372 µM) 0.909 ± 0.025; (0.04115 µM) 0.899 ± 0.077. Further, the relative viability was found to be 0.864 ± 0.093 (0.1235 µM); 0.822 ± 0.084 (0.3704 µM); 0.814 ± 0.11 (1.111 µM); 0.819 ± 0.086 (3.333 µM); 0.802 ± 0.13 (10 µM).
As for `CC(=O)Nc1cccc(-n2c(=O)n(C3CC3)c(=O)c3c(Nc4ccc(I)cc4F)n(C)c(=O)c(C)c32)c1` [Trametinib], the relative viability by setting is: (0.00017 µM) 1.05 ± 0.081; (0.00051 µM) 0.991 ± 0.036; (0.00152 µM) 0.918 ± 0.066; (0.00457 µM) 0.941 ± 0.051; (0.01372 µM) 0.789 ± 0.021; (0.04115 µM) 0.766 ± 0.013. Besides, the relative viability was found to be 0.73 ± 0.031 (0.1235 µM); 0.661 ± 0.018 (0.3704 µM); 0.638 ± 0.029 (1.111 µM); 0.628 ± 0.033 (3.333 µM); 0.611 ± 0.031 (10 µM).
